# Experiments:
# in vivo = experiment: in vivo; design: species or system mice; details: mouse, po, 10 mg/kg
# Method: (§1) Three animals (mean weight 20±7 g for mice and 275±20 for Guinea pigs) were used per dose route, time point and formulation.
# (§2) For the oral (PO) solution formulation, compound was dissolved in a 20% hydroxypropyl-β-cyclodextrin (HP-β-CD) solution at a final concentration of 1 mg/ml. HCl was added to facilitate dissolution. After dissolution, the pH was brought up to 3.7 with NaOH. Mannitol was added to make the solution isotonic. For the PO suspension formulation, compound was suspended in 0.5% methocel at a final concentration of 1 mg/ml. The formulations were stored at room temperature, protected from light and analysed quantitatively with LC-MS/MS on the day of preparation. Stability of the formulations was checked on the day of dosing.
# (§3) The animals were dosed orally by gastric intubation at 10 ml/kg to obtain a final dose 10 mg/kg. Three dosed animals were sacrificed for blood sampling at 15 and 30 min, 1, 2, 3, 4, 6, 8 and 24 h after PO dose administration as a solution and at 30 min, 1, 2, 4, 6, 8 and 24 h after PO dose administration as a suspension.
# (§4) Blood was collected by multiple sampling from a tail vein into Multivette® 600 K3E tubes (Sarstedt). Samples were placed immediately at approximately 4° C. and plasma was obtained following centrifugation at 4° C. for 10 minutes at approximately 1900×g. All samples were shielded from daylight and stored at ≦−18° C. prior to analysis.
# (§5) Plasma samples were analysed for dosed compound using a qualified research LC-MS/MS method. The key analytical performance (linearity, upper and lower limit of quantification, accuracy and precision) of the method was reported together with the plasma concentrations.
# (§6) A limited pharmacokinetic analysis was performed using WinNonlin™ Professional (Version 5.2.1). A non-compartmental analysis using the lin/log trapezoidal rule with lin/log interpolation was used for all data.
# [1] = tested on: Cryptococcus neoformans B66663; experiment: Antifungal activity in vitro (resazurin susceptibility screen), Inf. F; assay type: cell-based; details: Cryptococcus neoformans, B66663, Cryptococcus neoformans B66663; 37 °C, 24 hours, resa time 4 hours
# Summary of the method: (§7)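 Serial dilutions were tested up to 64 μM in RPMI-1640 with L-glutamine and 2% glucose, MOPS-buffered at pH 7.0, against an inoculum of 10^3 cfu per well. Incubation lasted from 24 h at 37° C. for yeasts to a week or more at 27° C. for dermatophytes. Growth was then read fluorimetrically after resazurin (ex 550/em 590 nm).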
# [2] = tested on: Scedosporium prolificans IHEM21157; experiment: Antifungal activity in vitro (resazurin susceptibility screen), Inf. I; assay type: cell-based; details: Lomentospora prolificans, 37 °C, 48 hours, resa time 17 hours
# Summary of the method: as §7
# [3] = In vivo pharmacokinetic determinations (bioavailability) in guinea pigs; details: guinea pig, po
# Method: as §1, §2, §3, §4, §5, §6
# [4] = tested on: Mucor circinelloides IHEM21105; experiment: Antifungal activity in vitro (resazurin susceptibility screen), Inf. L; assay type: cell-based; details: 27 °C, 48 hours, resa time 17 hours
# Summary of the method: as §7
compound,measurement,setting,value
"CC(F)(F)c1ccc(C2=NCc3c(Cl)cccc3-n3cccc32)cc1 [Compound 4, 7-chloro-4-[4-(1,1-difluoroethyl)phenyl]-6H-pyrrolo[1,2-a][1,4]benzodiazepine]",bioavailability,in vivo,20%
same,melting point,,215.2 to 217.6 °C
same,IC50,[1],21.4 µM
same,IC50,[2],0.148 µM
same,bioavailability,[3],35%
same,IC50,[4],> 64.6 µM
